Data published in US20230078511A1, “METHODS OF USING MOMELOTINIB TO TREAT JOINT INFLAMMATION” (Sierra Oncology, Inc., priority 2020, published 2023).

Experiments:
[1] = test system: CAIA BALB/C mice; assay: CAIA murine rheumatoid arthritis model in BALB/C mice (Example 4); assay type: in vivo; settings: for mean rear paw rheumatoid arthritis score / mean rear paw thickness / mean total animal rheumatoid arthritis score: beginning on day 6, vs vehicle, MMB 50 mg/kg daily or 30 mg/kg twice daily oral, etanercept 10 mg/kg daily IP
Procedure: BALB/C mice were immunized with 2 mg anti-collagen II antibodies administered intraperitoneally (IP) on day 0 followed by intraperitoneal injection of 100 µg of lipopolysaccharide (LPS) on day 3. Beginning at RA induction, mice were treated orally for the entirety of the study either once daily vehicle, MMB (50 mg/kg), twice daily with MMB (30 mg/kg), or daily intraperitoneally, etanercept (ETA) (10 mg/kg). Consecutive assessment of rheumatoid arthritis was performed by animal and rear paw scoring, and rear paw thickness measurements.

[2] = test system: myelofibrosis patients; settings: myelofibrosis patients treated with MMB; background statement; cited from earlier work
[3] = test system: rat model; settings: background statement; cited from earlier work
[4] = test system: PG-PS-immunized rats; assay: PG-PS induced rat model of chronic arthritis (Example 1); assay type: in vivo, Lewis rats
Procedure: Six-week old female Lewis rats are immunized with 15 mg/kg Streptococcal Peptidoglycan-Polysaccharide (PG-PS) administered intraperitoneally (IP). Treatments with anti-inflammatory drugs of interest are commenced two weeks later and continue for 7 days (short-term) to 21 days (long-term). Disease progression is monitored as described below (see Joint Pathology, Clinical Scoring and Bio-Imaging). Blood samples are collected once weekly and processed as described below. At the conclusion of experiments, blood, serum, and organ samples are collected and processed as described herein.
Spleen and lymph node cells are isolated by mechanical pressing of the organ through a 100 µm cell strainer (Corning) in PBS. For isolation of rat synovial infiltrates, hind limbs are freed of skin, bones, and major tendons. The remaining tissue is minced and digested with 0.16 U Liberase TM, 10 µg/mL DNase I, and 60 U hyaluronidase I in RPMI at 37° C. for 1 hour. Blood is collected into heparinized tubes and used directly for blood count determination. For immunophenotyping of blood leukocytes, blood samples are depleted from red blood cells by lysis with ACK buffer (150 mM NH4Cl, 10 mM KHCO3, 0.1 mM EDTA).
Flow cytometry staining is performed as described in Parajuli et al., Int. J. Cancer 126:896-908, 2010, which is hereby incorporated by reference in its entirety. Measurements are performed with a Cytoflex S device (Beckman Coulter) and FACS Symphony (Beckton Dickinson), enabling detection of 13 and 52 fluorescence parameters, respectively, as well as automated absolute cell count determination.
For intracellular cytokine/transcription factor staining, rat and murine T cells are re-stimulated for 4 hours with phorbol 12,13-dibutyrate (PDBu) and ionomycin (50 ng/mL and 500 ng/mL, respectively) in the presence of Golgi Stop (BD Bioscience). In sum, five multicolor antibody panels per species (rat, mouse) are established (blood leukocytes, organ leukocytes, intracellular staining for Th cell subtypes, blood reticulocytes, bone marrow erythropoiesis). Data analysis is performed using FlowJo Software.
(§1) Regular monitoring of arthritis progression in all animal models is accomplished by measuring hind limb ankle joint diameters with a Vernier’s caliper (volume = D × d^2Π/6, D and d are ankle diameters measured in perpendicular axes, D > d). In murine arthritis models, animals are additionally clinically scored with a system assessing swelling and mobility of each animal’s limb, as described in Inglis et al., Arthritis Res. Ther. 8:R113, 2007, which is hereby incorporated by reference in its entirety. Each paw of an experimental animal is assessed separately as follows: 0 - normal, 1 - slight swelling or erythrema, 2 - pronounced swelling, 3 - joint rigidity. The paw scores for each animal are summed giving a maximum of 12 points per mouse. Scoring is performed by a rater blinded to the group assignment.
A rat model of chronic arthritis (PG-PS induced) was used to assess the efficacy of the dual JAK1/2 and ACVR1 inhibitor momelotinib (MMB) in vivo. Two weeks following arthritis induction by immunization with PG-PS, rats were treated with daily oral doses of MMB (5, 10, and 25 mg/kg) or vehicle for 3 weeks.
Consecutive assessment of arthritis was performed by joint thickness measurements and paw scoring. Following 3 weeks of treatment, synovial immune cell infiltration and T cell subset differentiation were quantified by multi-color flow cytometry. Cytokine gene expression was profiled by Real-Time PCR. Anemia was assessed by determination of blood hemoglobin and serum, spleen and liver iron levels.

[5] = test system: CAIA DBA/1 mice; assay: Collagen antibody-induced arthritis (CAIA) in DBA/1 mice (Example 2); assay type: in vivo
Text: as §1, with “Vernier's” for “Vernier’s”, “animal's” for “animal’s”, “Inglis” left out, “8:[…],” for “8:R113,”, “[…],” for “erythrema,”, “assignment. In order to evaluate efficacy of MMB treatment in a second arthritic animal model, arthritis was induced in DBA/1 mice by intravenous injection of collagen antibody cocktail on day 0 followed by intraperitoneal injection of lipopolysaccharide (LPS) on day 3. […] Comparator controls dexamethasone (1 mg/kg) or the TNF-α inhibitor, etanercept (10 mg/kg) were administered daily by intraperitoneal injection beginning on day 0.” for “assignment.”

[6] = target: T1, Activin Receptor Type 1 (ACVR1) (Homo sapiens, UniProt Q04771); settings: background statement; cited from earlier work
T1 sequence (Q04771 21-509): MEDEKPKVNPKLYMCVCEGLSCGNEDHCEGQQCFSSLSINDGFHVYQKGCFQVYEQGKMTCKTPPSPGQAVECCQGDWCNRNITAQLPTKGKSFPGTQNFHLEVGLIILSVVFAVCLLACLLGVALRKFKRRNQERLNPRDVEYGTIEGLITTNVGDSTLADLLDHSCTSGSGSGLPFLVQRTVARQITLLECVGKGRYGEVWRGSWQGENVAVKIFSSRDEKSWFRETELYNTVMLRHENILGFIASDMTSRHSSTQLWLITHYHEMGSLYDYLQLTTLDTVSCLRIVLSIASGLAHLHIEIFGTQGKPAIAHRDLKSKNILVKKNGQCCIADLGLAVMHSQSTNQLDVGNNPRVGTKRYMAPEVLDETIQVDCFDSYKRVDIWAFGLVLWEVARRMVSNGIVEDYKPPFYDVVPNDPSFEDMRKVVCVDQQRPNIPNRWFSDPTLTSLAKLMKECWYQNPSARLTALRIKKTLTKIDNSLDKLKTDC

[7] = test system: PG-PS-immunized RA rats; assay: PG-PS rat rheumatoid arthritis (RA) model, 3 or 21 days of treatment (Example 3); assay type: in vivo, Lewis rats
Procedure: Female Lewis rats were immunized with 15 mg/kg Streptococcal Peptidoglycan-Polysaccharide (PG-PS) administered intraperitoneally (IP) to generate a rat model of rheumatoid arthritis. Rats were used to assess the efficacy of the dual JAK1/2 and ACVR1 inhibitor momelotinib (MMB) in vivo. Two weeks following rheumatoid arthritis induction by immunization with PG-PS, rats were treated with daily oral doses of MMB (5, 10, 25 mg/kg) or vehicle for 3 or 21 days.
Statistical significance was determined with one-way ANOVA for RA animals with Bonferroni post-hoc tests (N=5-10 per group, * p < 0.05, ** p < 0.01).
Cytokine gene expression was profiled by Real-Time PCR. For immunophenotyping of blood leukocytes and granulocyte counts were obtained. Anemia was assessed by determination of blood hemoglobin and serum, spleen and liver iron levels.

[8] = all tested doses (5, 10, 25 mg/kg), vs vehicle in PG-PS animals
[9] = beginning at the lowest tested dose (5 mg/kg)
[10] = daily oral, 3 weeks, flow cytometry
[11] = daily oral, 3 weeks, hind limb ankle joints, flow cytometry
[12] = beginning on day 5, vs vehicle, MMB 50 mg/kg daily or 30 mg/kg twice daily oral, etanercept 10 mg/kg daily IP
[13] = 21 days of treatment, compared to healthy and RA rats
[14] = 21 days of treatment, flow cytometry

N#CCNC(=O)c1ccc(-c2ccnc(Nc3ccc(N4CCOCC4)cc3)n2)cc1 [MMB, N-(cyanomethyl)-4-(2-(4-morpholinophenylamino)pyrimidin-4-yl)benzamide]
rheumatoid arthritis scoring versus the TNF-α inhibitor etanercept ([1]; CAIA model, BALB/C mice): non-inferiority | mean rear paw rheumatoid arthritis score [1]: significant reduction | mean rear paw thickness [1]: significant reduction | mean total animal rheumatoid arthritis score [1]: significant reduction | anti-arthritic effectiveness compared with etanercept ([1]; murine CAIA RA model): at least equally effective | anemia benefit [2]: clinically reproduced | anemia [3]: correct anemia | joint swelling ([4]; 25 mg/kg): complete remission | splenic granulocytes (percentage of splenic CD45+ leukocytes) ([4]; 25 mg/kg for 3 weeks, flow cytometry): significant reduction | mean sum diameter of hind limb joints ([4]; 10 and 25 mg/kg daily oral, 3 weeks, caliper on last day of treatment, vs vehicle): significant reduction | reduction of inflammatory granulocyte infiltration in synovial tissue [4, 8]: more than 60% | reduction of macrophage infiltration in synovial tissue [4, 8]: more than 60% | arthritogenic Th17 cell differentiation [4, 9]: effectively decreased | overall CD4+ T cells in the synovia [4, 9]: effectively decreased | swelling and cartilage destruction in arthritic hind limb joints ([4]; daily oral, 3 weeks, H&E sections at 10 mg/kg): substantially inhibits | granulocytes in synovial tissue of hind limb ankle joint pairs [4, 10]: significantly reduced | inflammatory CD11b/c+ macrophages in synovial tissue [4, 10]: significantly reduced | monocytes in synovial tissue [4, 10]: significantly reduced | splenic Th1 cells [4, 10]: reduced | splenic Th17 cells [4, 10]: significant reduction | splenic Treg cells [4, 10]: not significantly altered | synovial CD4+ T cells [4, 11]: significant reductions | synovial CD8+ T cells [4, 11]: significant reductions | CD4+ T cells in the arthritic ankle synovia ([4]; lowest dose tested, 5 mg/kg): Reduction | RA-associated anemia ([4]; rats): substantial improvement | circulating hepcidin levels ([4]; rats): reduced | systemic iron ([4]; rats): mobilized | mean rear paw thickness ([5]; 20 mg/kg daily oral, days 7 and 12, vs vehicle): reduction | arthritis scoring versus the TNF-α inhibitor etanercept ([5]; CAIA model, DBA/1 mice): non-inferiority | mean rear paw arthritis score [5, 12]: significant reduction | mean rear paw thickness [5, 12]: significant reduction | mean total arthritis score [5, 12]: significant reduction | inhibition of ACVR1 [6]: potent inhibition | blood granulocyte counts ([7]; 3 days of treatment): significantly decreases | blood leukocyte counts ([7]; 3 days of treatment): significantly decreases | spleen and liver cytokine expression ([7]; 3 days of treatment, Real-Time PCR): significantly decreases | cartilage damage ([7]; 21 days of treatment, H&E-stained hind limb joint sections): alleviates | anemia [7, 13]: corrects | hepcidin [7, 13]: decreases | hind limb joint swelling ([7]; 21 days of treatment, figure shows 10 mg/kg): reduces | CD4+ T cell infiltration in hind-limb synovial tissue [7, 14]: significantly reduces | CD8+ T cell infiltration in hind-limb synovial tissue [7, 14]: significantly reduces | differentiation of splenic Th17 cells [7, 14]: inhibits | infiltration of macrophages in hind limb synovia [7, 14]: reduces | infiltration of neutrophils in hind limb synovia [7, 14]: reduces | regulatory Treg cells [7, 14]: without affecting | splenic Th1 cells [7, 14]: without affecting | iron availability ([7]; rat PG-PS model): improves

etanercept [reference compound]
mean rear paw rheumatoid arthritis score [1]: significant reduction | mean rear paw thickness [1]: significant reduction | mean total animal rheumatoid arthritis score [1]: significant reduction | mean rear paw arthritis score [5, 12]: significant reduction | mean rear paw thickness [5, 12]: significant reduction | mean total arthritis score [5, 12]: significant reduction
